# Measurements: patent US20240425523A1, “Compounds for the Degradation of EGFR Kinase” (Beigene Switzerland GMBH, priority 2023, published 2024)
# Columns and labels:
# Format in all cases: cell-based
# [1] = target: p-EGFR Del19/C797S (H1975-clone #23 cells) (Homo sapiens, UniProt P00533); test: Cell p-EGFR inhibition assay, HTRF, H1975-clone#23 (DEL19/C797S) cells; conditions: 16 h treatment; for Imax (%): maximum percentage of pEGFR inhibition; for IC50: pEGFR inhibition
# In short: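 Phospho-EGFR read by overnight HTRF on lysates, normalized to DMSO-treated high control; IC50, Hill slope and Imax fitted. Compounds were applied for 16 h (10 uM top, 5-fold steps, 8 doses) to an H1975 single clone carrying only exogenous Del19/C797S EGFR after sgRNA knockout of endogenous copies.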
# [2] = target: T1, EGFR L858R (BaF3-L858R cells) (Homo sapiens, UniProt P00533, L858R); test: Cell degradation of EGFR, HTRF assay, BaF3-L858R cells; conditions: 16 h treatment; for DC50: EGFR degradation; for Dmax: maximum percentage of degradation
# T1 construct: host or cells: BaF3
# In short: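 EGFR L858R levels measured by HTRF antibody pair in lysed BaF3-L858R cells after 16 h compound exposure (8-point 5-fold series from 10 uM final, 37° C). Degradation is relative to DMSO-only cells; DC50 fitted with Hill equation, Dmax taken as the largest percent loss.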
# [3] = target: T2, EGFR-L858R/C797S (H1975-clone #8 cells) (Homo sapiens, UniProt P00533, C797S/L858R); test: Cell degradation of EGFR, HTRF assay, H1975-clone#8 (L858R/C797S) cells; conditions: 16 h treatment; for DC50: EGFR degradation; for Dmax: maximum percentage of degradation
# T2 construct: expressed in transfected cells; host or cells: H1975 (endogenous EGFR knocked out, clone #8)
# [4] = target: T3, p-EGFR L858R (BaF3-L858R cells) (Homo sapiens, UniProt P00533, L858R); test: Cell p-EGFR inhibition assay, HTRF, BaF3-L858R cells; conditions: 16 h treatment; for Imax (%): maximum percentage of pEGFR inhibition; for IC50: pEGFR inhibition
# T3 construct: host or cells: BaF3
# In short: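 BaF3-L858R cells treated 16 h at 37 °C, 5% CO2 with compound from 10 uM top, 5-fold dilutions, 8 doses, in 0.1% DMSO medium. Lysates read overnight by HTRF p-EGFR antibodies; IC50 fitted to four-parameter curve against DMSO high control.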
SMILES,Imax (%) [1] [%],IC50 [1] [nM],DC50 [2] [nM],Dmax [2] [%],DC50 [3] [nM],Dmax [3] [%],Imax (%) [4] [%],IC50 [4] [nM]
"Cc1cc2cc(n1)-c1cnn(C)c1OC[C@H]1CCC(C1)CN1/C(=N/C2=O)Nc2ccc(N3CCN([C@@H]4CCN(c5ccc(OC6CCC(=O)NC6=O)cc5F)C[C@@H]4F)CC3)cc21 (stereo partly drawn) [Example 115, 3-(4-((3S,4R)-4-(4-((7^1R,7^3S,E)-1^1,2^6-dimethyl-3-oxo-5^2,5^3-dihydro-1^1H,5^1H-9-oxa-4-aza-5(2,1)-benzo[d]imidazola-2(2,4)-pyridina-1(4,5)-pyrazola-7(1,3)-cyclopentanacyclononaphane-5^6-yl)piperazin-1-yl)-3-fluoropiperidin-1-yl)-3-fluorophenoxy)piperidine-2,6-dione]",99.8,1.3,1.6,81.9,2.84,81.1,97.7,3.9
"Cc1cc2cc(n1)-c1cnn(C)c1OC[C@H]1CCC(C1)CN1/C(=N/C2=O)Nc2ccc(N3CC(N(C)C4CCN(c5cc(F)c([C@H]6CCC(=O)NC6=O)c(F)c5)CC4)C3)cc21 [Example 124, (R)-3-(4-(4-((1-((7^1R,7^3S,E)-1^1,2^6-dimethyl-3-oxo-5^2,5^3-dihydro-1^1H,5^1H-9-oxa-4-aza-5(2,1)-benzo[d]imidazola-2(2,4)-pyridina-1(4,5)-pyrazola-7(1,3)-cyclopentanacyclononaphane-5^6-yl)azetidin-3-yl)(methyl)amino)piperidin-1-yl)-2,6-difluorophenyl)piperidine-2,6-dione]",99.6,0.9,3.58,71.1,2.3,67.5,94.6,17.1
"Cc1cc2cc(n1)-c1c(C)nn(C)c1OC[C@H]1CC[C@H](C1)CN1/C(=N/C2=O)Nc2ccc(N3CCC(CN(C)C4CCN(c5cc(F)c([C@H]6CCC(=O)NC6=O)c(F)c5)CC4)CC3)cc21 [Example 138, (R)-3-(2,6-difluoro-4-(4-(methyl((1-((7^1R,7^3S,E)-1^1,1^3,2^6-trimethyl-3-oxo-5^2′5^3-dihydro-1^1H,5^1H-9-oxa-4-aza-5(2,1)-benzo[d]imidazola-2(2,4)-pyridina-1(4,5)-pyrazola-7(1,3)-cyclopentanacyclononaphane-5^6-yl)piperidin-4-yl)methyl)amino)piperidin-1-yl)phenyl)piperidine-2,6-dione]",102.96,1.37,3.61,85.5,1.27,83.4,104.27,7.09
"Cc1cc2cc(n1)-c1cnn(C)c1OC[C@H]1CC[C@H](C1)CN1/C(=N/C2=O)Nc2ccc(N3CCN(CC4CN(c5ccc6c(c5)CN(C5CCC(=O)NC5=O)C6=O)C4)CC3)cc21 (some centres unmarked) [Example 35, 3-(5-(3-((4-((7^1R,7^3S,E)-1^1,2^6-dimethyl-3-oxo-5^2,5^3-dihydro-1^1H,5^1H-9-oxa-4-aza-5(2,1)-benzo[d]imidazola-2(2,4)-pyridina-1(4,5)-pyrazola-7(1,3)-cyclopentanacyclononaphane-5^6-yl)piperazin-1-yl)methyl)azetidin-1-yl)-1-oxoisoindolin-2-yl)piperidine-2,6-dione]",101.1,0.5,0.49,91.8,0.6,58,91.6,1.3
"COC[C@@H]1CN(c2cc3c(cc2OC)N/C2=N\C(=O)c4cc(C)nc(c4)-c4c(C)nn(C)c4OC[C@H]4CC[C@H](C4)CN23)CCN1C1CCN(c2cc(F)c([C@H]3CCC(=O)NC3=O)c(F)c2)CC1 [Example 151, (R)-3-(2,6-difluoro-4-(4-((S)-4-((7^1R,7^3S,E)-5^5-methoxy-1^1,1^3,2^6-trimethyl-3-oxo-5^2,5^3-dihydro-1^1H,5^1H-9-oxa-4-aza-5(2,1)-benzo[d]imidazola-2(2,4)-pyridina-1(4,5)-pyrazola-7(1,3)-cyclopentanacyclononaphane-5^6-yl)-2-(methoxymethyl)piperazin-1-yl)piperidin-1-yl)phenyl)piperidine-2,6-dione]",99.54,1.02,1.68,90.6,2.62,88.5,95.95,5.03
"Cc1cc2cc(n1)-c1cnn(C)c1OC[C@H]1CCC(C1)CN1/C(=N/C2=O)Nc2ccc(N3CCC(CN4CC(Nc5cc(F)c([C@H]6CCC(=O)NC6=O)c(F)c5)C4)CC3)cc21 [Example 132, (R)-3-(4-((1-((1-((7^1R,7^3S,E)-1^1,2^6-dimethyl-3-oxo-5^2,5^3-dihydro-1^1H,5^1H-9-oxa-4-aza-5(2,1)-benzo[d]imidazola-2(2,4)-pyridina-1(4,5)-pyrazola-7(1,3)-cyclopentanacyclononaphane-5^6-yl)piperidin-4-yl)methyl)azetidin-3-yl)amino)-2,6-difluorophenyl)piperidine-2,6-dione]",100.62,0.63,3.22,81,2.05,66,97.32,62.7

# Next, values leading:
Imax (%) [1] [%],IC50 [1] [nM],DC50 [2] [nM],Dmax [2] [%],DC50 [3] [nM],Dmax [3] [%],Imax (%) [4] [%],IC50 [4] [nM],SMILES
100.52,1.1,2.03,85.8,1.88,88,96.89,2.87,"COC[C@@H]1CN(c2ccc3c(c2)N2C[C@@H]4CC[C@H](COc5c(c(C)nn5CCO)-c5cc(cc(C)n5)C(=O)/N=C/2N3)C4)CCN1C1CCN(c2cc(F)c([C@H]3CCC(=O)NC3=O)c(F)c2)CC1 [Example 157, (R)-3-(2,6-difluoro-4-(4-((S)-4-((7^1R,7^3S,E)-1^1-(2-hydroxyethyl)-1^3,2^6-dimethyl-3-oxo-5^2,5^3-dihydro-1^1H,5^1H-9-oxa-4-aza-5(2,1)-benzo[d]imidazola-2(2,4)-pyridina-1(4,5)-pyrazola-7(1,3)-cyclopentanacyclononaphane-5^6-yl)-2-(methoxymethyl)piperazin-1-yl)piperidin-1-yl)phenyl)piperidine-2,6-dione]"
99.96,1.6,0.73,91.3,3.07,88.8,89.34,2.05,"Cc1cc2cc(n1)-c1c(C)nn(C)c1OC[C@H]1CC[C@H](C1)CN1/C(=N/C2=O)Nc2ccc(N3CCN(C4CCN(c5cc(F)c([C@H]6CCC(=O)NC6=O)c(F)c5)CC4)C[C@@H]3CF)cc21 [Example 211, (R)-3-(2,6-difluoro-4-(4-((R)-3-(fluoromethyl)-4-((7R,7^3S,E)-1^1,1^3,2^6-trimethyl-3-oxo-5^2,5^3-dihydro-1^1H,5^1H-9-oxa-4-aza-5(2,1)-benzo[d]imidazola-2(2,4)-pyridina-1(4,5)-pyrazola-7(1,3)-cyclopentanacyclononaphane-5^6-yl)piperazin-1-yl)piperidin-1-yl)phenyl)piperidine-2,6-dione]"
99.96,1.39,2.42,87.9,1.01,88.8,89.34,1.53,"Cc1cc2cc(n1)-c1c(C)nn(C)c1OC[C@H]1CC[C@H](C1)CN1/C(=N/C2=O)Nc2ccc(N3CCN(C4CCN(c5cc(F)c([C@H]6CCC(=O)NC6=O)c(F)c5)CC4)[C@H](C)C3)cc21 [Example 192, (R)-3-(2,6-difluoro-4-(4-((R)-2-methyl-4-((7^1R,7^3S,E)-1^1,1^3,2^6-trimethyl-3-oxo-5^2,5^3-dihydro-1^1H,5^1H-9-oxa-4-aza-5(2,1)-benzo[d]imidazola-2(2,4)-pyridina-1(4,5)-pyrazola-7(1,3)-cyclopentanacyclononaphane-5^6-yl)piperazin-1-yl)piperidin-1-yl)phenyl)piperidine-2,6-dione]"
99.52,0.851,1.1,92.1,0.54,90.7,94.08,1.17,"COC[C@H]1CN(c2ccc3c(c2)N2C[C@@H]4CC[C@H](COc5c(c(C)nn5C)-c5cc(cc(C)n5)C(=O)/N=C/2N3)C4)CCN1C1CN(C2CCN(c3cc(F)c([C@H]4CCC(=O)NC4=O)c(F)c3)CC2)C1 [Example 206, (R)-3-(2,6-difluoro-4-(4-(3-((R)-2-(methoxymethyl)-4-((7R,7^3S,E)-1^1,1^32^6-trimethyl-3-oxo-5^2,5^3-dihydro-1^1H,5^1H-9-oxa-4-aza-5(2,1)-benzo[d]imidazola-2(2,4)-pyridina-1(4,5)-pyrazola-7(1,3)-cyclopentanacyclononaphane-5^6-yl)piperazin-1-yl)azetidin-1-yl)piperidin-1-yl)phenyl)piperidine-2,6-dione]"
